Results published in patent US10155021B2, “Antimicrobial 4-oxoquinolizines” (Emergent Product Development Gaithersburg Inc., priority 2011, dated 2018).
≈ marks a conversion by molar mass, not a printed value. Like-named read-outs stand apart in the source and are kept apart here.

Legend:
E. coli ATCC 25922 = test: MIC, selected panel of Gram-positive and Gram-negative strains (Example 5); format: cell-based, Escherichia coli
[1] = system: S. aureus ATCC 43300 (MRSA, FQ-S); test: as above; format: cell-based, Staphylococcus aureus
P. aeruginosa ATCC 27853 = test: as above; format: cell-based
S. aureus ATCC 25923 = test: as above; format: cell-based; conditions: Staphylococcus aureus, ATCC25923, read-out: MIC S. aureus ATCC 25923
B. thailandensis E264 = test: microbe, parasite or virus in culture; format: cell-based, Burkholderia thailandensis; conditions: Burkholderia thailandensis, E264, read-out: MIC B. thailandensis E264
[2] = system: S. aureus BAA-1556 (USA300-Type MRSA, FQ-R); test: MIC, selected panel of Gram-positive and Gram-negative strains (Example 5); format: cell-based, Staphylococcus aureus
A. baumannii ATCC 19606 = test: as above; format: cell-based, Acinetobacter baumannii; conditions: Acinetobacter baumannii, ATCC19606, read-out: MIC A. baumannii ATCC 19606
[3] = Escherichia coli, ATCC25922, read-out: MIC E. coli ATCC 25922
[4] = Staphylococcus aureus, read-out: MIC S. aureus ATCC 43300 (MRSA, FQ-S)
[5] = Pseudomonas aeruginosa, ATCC27853, read-out: MIC P. aeruginosa ATCC 27853
[6] = Staphylococcus aureus, read-out: MIC S. aureus BAA-1556 (USA300-Type MRSA, FQ-R)
[7] = Staphylococcus aureus; read-out: MIC S. aureus BAA-1556 (USA300-Type MRSA, FQ-R)

SMILES	MIC (E. coli ATCC 25922; [3])	MIC [1, 4]	MIC (P. aeruginosa ATCC 27853; [5])	MIC (S. aureus ATCC 25923)	MIC (B. thailandensis E264)	MIC [2, 6]	MIC (A. baumannii ATCC 19606)	MIC [2, 7]	MIC (E. coli ATCC 25922; Escherichia coli, ATCC25922; read-out: MIC E. coli ATCC 25922)	MIC ([1]; Staphylococcus aureus; read-out: MIC S. aureus ATCC 43300 (MRSA, FQ-S))	MIC (P. aeruginosa ATCC 27853; Pseudomonas aeruginosa, ATCC27853; read-out: MIC P. aeruginosa ATCC 27853)
CNc1ccc(-c2ccn3c(=O)c(C(=O)[O-])cc(C4CC4)c3c2C)cn1.[K+] [Compound 78K salt, potassium 8-(6-(methylamino)pyridin-3-yl)-1-cyclopropyl-9-methyl-4-oxo-4H-quinolizine-3-carboxylate]	0.064 to 0.125 µg/mL	8 ng/mL	2 µg/mL	8 ng/mL	0.5 µg/mL						
CC(=O)NCc1ccc(-c2ccn3c(=O)c(C(=O)[O-])cc(C4CC4)c3c2C)cc1.[K+] [Compound 64K salt, potassium 8-(4-(Acetamidomethyl)phenyl)-1-cyclopropyl-9-methyl-4-oxo-4H-quinolizine-3-carboxylate]		32 ng/mL	8 µg/mL	32 ng/mL	2 µg/mL	0.5 µg/mL	0.5 µg/mL				
Cc1c(-c2ccc(O)cc2)c(F)cn2c(=O)c(C(=O)[O-])cc(C3CC3)c12.[K+] [Compound 61K salt, potassium 8-(4-hydroxyphenyl)-1-cyclopropyl-7-fluoro-9-methyl-4-oxo-4H-quinolizine-3-carboxylate]	0.032 µg/mL		2 µg/mL		0.5 µg/mL	0.064 µg/mL					
Cc1c(-c2ccc3sc(N)nc3c2)ccn2c(=O)c(C(=O)[O-])cc(C3CC3)c12.[K+] [Compound 73K salt, potassium 8-(2-aminobenzo[d]thiazol-5-yl)-1-cyclopropyl-9-methyl-4-oxo-4H-quinolizine-3-carboxylate]	0.032 µg/mL	≤ 4 ng/mL	2 µg/mL	≤ 4 ng/mL	0.5 µg/mL	0.064 µg/mL					
Cc1c(-c2ccc(N3CCNCC3)nc2)ccn2c(=O)c(C(=O)[O-])cc(C3CC3)c12.[K+] [Compound 84K salt, potassium 8-(6-(piperazin-1-yl)pyridin-3-yl)-1-cyclopropyl-9-methyl-4-oxo-4H-quinolizine-3-carboxylate]	0.125 to 0.25 µg/mL		8 µg/mL		8 µg/mL	2 µg/mL	2 µg/mL				
CNc1ccc(-c2ccn3c(=O)c(C(=O)[O-])cc(C4CC4)c3c2C)cc1C.[K+] [Compound 69K salt, potassium 8-(3-methyl-4-(methylamino)phenyl)-1-cyclopropyl-9-methyl-4-oxo-4H-quinolizine-3-carboxylate]		≤ 4 ng/mL	4 µg/mL	≤ 4 ng/mL	1 µg/mL	0.25 µg/mL	0.25 to 0.5 µg/mL				
Cc1c(-c2ccc3c(c2)CCN3)ccn2c(=O)c(C(=O)[O-])cc(C3CC3)c12.[K+] [Compound 77K salt, potassium 8-(indolin-5-yl)-1-cyclopropyl-9-methyl-4-oxo-4H-quinolizine-3-carboxylate]		16 ng/mL	4 µg/mL	16 ng/mL	1 µg/mL	0.5 µg/mL	0.25 µg/mL				
COc1c(-c2ccc(N)nc2)ccn2c(=O)c(C(=O)[O-])cc(C3CC3)c12.[K+] [Compound 89K salt, potassium 8-(6-amino-pyridin-3-yl)-1-cyclopropyl-9-methoxy-4-oxo-4H-quinolizine-3-carboxylate]		32 ng/mL	8 µg/mL	32 ng/mL	4 µg/mL	2 µg/mL	0.5 µg/mL				
Cc1c(-c2ccc3[nH]nc(C4CC4)c3c2)ccn2c(=O)c(C(=O)[O-])cc(C3CC3)c12.[K+] [Compound 71K salt, potassium 8-(3-cyclopropyl-1H-indazol-5-yl)-1-cyclopropyl-9-methyl-4-oxo-4H-quinolizine-3-carboxylate]		≤ 4 ng/mL	> 8 µg/mL	≤ 4 ng/mL	2 µg/mL		0.5 µg/mL				
COc1cc(-c2ccn3c(=O)c(C(=O)[O-])cc(C4CC4)c3c2C)ccc1O.[K+] [Compound 66K salt, potassium 8-(4-hydroxy-3-methoxyphenyl)-1-cyclopropyl-9-methyl-4-oxo-4H-quinolizine-3-carboxylate]		8 ng/mL	4 µg/mL	8 ng/mL	1 µg/mL	0.25 µg/mL	0.5 µg/mL				
Cc1c(-c2ccc3c(cnn3C)c2)ccn2c(=O)c(C(=O)[O-])cc(C3CC3)c12.[K+] [Compound 81K salt, potassium 8-(1-methyl-1H-indazol-5-yl)-1-cyclopropyl-9-methyl-4-oxo-4H-quinolizine-3-carboxylate]	0.064 µg/mL	≤ 4 ng/mL	2 µg/mL	≤ 4 ng/mL	0.25 µg/mL	0.064 µg/mL					
C[C@H]1c2cccc(O)c2C(=O)C2=C(O)[C@]3(O)C(=O)C(C(N)=O)=C(O)[C@@H](N(C)C)[C@@H]3[C@@H](O)[C@@H]21 [Doxycycline, reference compound]					2 µg/mL (≈ 4.5 µM)			4 µg/mL (≈ 9 µM)	1 µg/mL (≈ 2.25 µM)	250 ng/mL (≈ 0.563 µM)	> 8 µg/mL
COc1c(-c2ccc3[nH]ncc3c2)ccn2c(=O)c(C(=O)[O-])cc(C3CC3)c12.[K+] [Compound 90K salt, potassium 8-(1H-indazol-5-yl)-1-cyclopropyl-9-methoxy-4-oxo-4H-quinolizine-3-carboxylate]		8 ng/mL	4 µg/mL	8 ng/mL	2 µg/mL	0.25 µg/mL	0.5 µg/mL				
Cc1c(-c2cccc(O)c2)ccn2c(=O)c(C(=O)[O-])cc(C3CC3)c12.[K+] [Compound 56K salt, potassium 1-cyclopropyl-8-(3-hydroxyphenyl)-9-methyl-4-oxo-4H-quinolizine-3-carboxylate]	0.032 µg/mL	8 ng/mL	2 µg/mL	8 ng/mL	0.25 µg/mL						
Cc1cn2c(=O)c(C(=O)[O-])cc(C3CC3)c2c(C)c1-c1ccc(N)nc1.[K+] [Compound 87K salt, potassium 8-(6-amino-pyridin-3-yl)-1-cyclopropyl-7,9-dimethyl-4-oxo-4H-quinolizine-3-carboxylate]		64 ng/mL	8 µg/mL	64 ng/mL	4 µg/mL	8 µg/mL	0.25 µg/mL				
Cc1cn2c(=O)c(C(=O)[O-])cc(C3CC3)c2c(C)c1-c1ccc2[nH]ncc2c1.[K+] [Compound 88K salt, potassium 8-(1H-indazol-5-yl)-1-cyclopropyl-7,9-dimethyl-4-oxo-4H-quinolizine-3-carboxylate]		8 ng/mL	4 µg/mL	8 ng/mL	1 µg/mL	0.5 µg/mL	0.5 µg/mL				
Cc1c(-c2ccc(O)c(F)c2)ccn2c(=O)c(C(=O)[O-])cc(C3CC3)c12.[K+] [Compound 70K salt, potassium 8-(3-fluoro-4-hydroxyphenyl)-1-cyclopropyl-9-methyl-4-oxo-4H-quinolizine-3-carboxylate]	0.032 µg/mL	≤ 4 ng/mL	1 µg/mL	≤ 4 ng/mL	0.25 µg/mL	0.064 µg/mL					
O=C(O)c1cn(C2CC2)c2cc(N3CCNCC3)c(F)cc2c1=O [Ciprofloxacin, reference compound]								> 8 µg/mL			
Cc1c(-c2ccc(CN)s2)ccn2c(=O)c(C(=O)[O-])cc(C3CC3)c12.[K+] [Compound 13K salt, potassium 8-(5-(aminomethyl)thiophen-2-yl)-1-cyclopropyl-9-methyl-4-oxo-4H-quinolizine-3-carboxylate]	0.016 µg/mL	16 ng/mL	1 µg/mL	16 ng/mL	0.5 µg/mL	0.5 µg/mL					
